Laboratory results reported in ChEMBL document CHEMBL6182910, “Design, Synthesis, and Biological Evaluation of 4-(Difluoromethyl)-1H-imidazole-5-carboxylic Acids/4-(3-Cyanophenoxy)pyrimidine-5-carboxylic Acids as P2Y1 Receptor Antagonists for Ischemic Stroke Treatment” (J Med Chem, 2025).
The source made the active and inactive calls. No cut-off for these calls is given here.

Assays:
[1] = AUC in plasma of male Sprague-Dawley rat at 10 mg/kg, iv measured for 0.083 to 24 hrs by LC-MS/MS analysis; assay type: ADME, organism-based; settings: time 0.083-24 hrs
[2] = target: P2Y purinoceptor 1 (Rattus norvegicus) (UniProt P49651); assay: Induction of thermodynamic stability of P2Y1 receptor in rat platelet-rich plasma incubated for 30 mins followed by heat exposure at 61 degreeC for 10 mins by CETSA; assay type: cell-free; settings: dose <= 100.0 µM, time 40.0 min
[3] = Tmax male Sprague-Dawley rat at 10 mg/kg, iv measured up to 24 hrs by LC-MS/MS analysis; assay type: ADME, organism-based; settings: in vivo
Rattus norvegicus [4] = assay: Anti-platelet aggregation in Sprague-Dawley rat assessed as inhibition of ADP-induced platelet aggregation at 10 mg/kg, po measured for 15 mins in presence of 2.5 uM ADP by cell counter analysis relative to control; assay type: functional; settings: 0.25 h
[5] = Apparent volume of distribution male Sprague-Dawley rat at 10 mg/kg, iv measured up to 24 hrs by LC-MS/MS analysis; assay type: ADME, organism-based; settings: in vivo, read-out: Vz
Rattus norvegicus [6] = assay: Neuroprotective activity in MCAO-induced brain damage Sprague-Dawley rat model assessed as reduction in brain infarction size at 10 mg/kg, iv administered immediately after arterial occlusion measured after 24 hrs by TTC staining based analysis relative to control; assay type: functional; set-up: scale not given: the % may be the effect or the level left
Rattus norvegicus [7] = assay: Neuroprotective activity in MCAO-induced brain damage Sprague-Dawley rat model assessed as brain infarction size at 5 mg/kg, iv administered immediately after arterial occlusion measured after 24 hrs by TTC staining based analysis (reference value: 43.1 %); assay type: functional
[8] = Oral bioavailability male Sprague-Dawley rat at 10 mg/kg measured up to 24 hrs by LC-MS/MS analysis; assay type: ADME, organism-based; settings: in vivo
Rattus norvegicus [9] = assay: Neuroprotective activity in MCAO-induced brain damage Sprague-Dawley rat model assessed as improvement in hippocampal neuron damage administered intravenously immediately after arterial occlusion measured after 24 hrs by H and E staining based analysis; assay type: functional, organism-based; settings: dose 2.5-10 mg/kg, route iv
[10] = Clearance male Sprague-Dawley rat at 10 mg/kg, iv measured up to 24 hrs by LC-MS/MS analysis; assay type: ADME, organism-based; settings: in vivo
CYP2E1 = CYP2E1 (Homo sapiens, UniProt P05181); assay: Inhibition of CYP2E1 in human liver microsomes using chlorzoxazone as substrate at 10 uM preincubated for 5 min followed by NADPH addition measured after 120 mins by LC-MS/MS analysis relative to control; assay type: ADME, Microsome; settings: probe chlorzoxazone, time 125 min
[11] = Protein binding in rat brain homogenate at 10 uM incubated for 12 hrs by equilibrium dialysis method; assay type: ADME, tissue-based; settings: read-out: PB (converted)
[12] = Protein binding in rat plasma at 10 uM incubated for 12 hrs by equilibrium dialysis method; assay type: ADME, cell-free; settings: read-out: PPB (converted)
Oryctolagus cuniculus = organism: Oryctolagus cuniculus; assay: Antagonist activity at P2Y12 receptor in platelet-rich plasma of male Japanese white rabbit assessed as inhibition of VASP phosphorylation at Ser239 at 30 uM pretreated for 10 mins followed by PGE1/ADP addition measured after 10 mins by ELISA relative to control; assay type: cell-free; settings: time 20.0 min
CYP2A6 = target: T1, CYP2A6 (Homo sapiens, UniProt P11509); assay: Inhibition of CYP2A6 in human liver microsomes using coumarin as substrate at 10 uM preincubated for 5 min followed by NADPH addition measured after 120 mins by LC-MS/MS analysis relative to control; assay type: ADME, Microsome; settings: probe coumarin, time 125 min
T1 sequence (P11509 whole entry): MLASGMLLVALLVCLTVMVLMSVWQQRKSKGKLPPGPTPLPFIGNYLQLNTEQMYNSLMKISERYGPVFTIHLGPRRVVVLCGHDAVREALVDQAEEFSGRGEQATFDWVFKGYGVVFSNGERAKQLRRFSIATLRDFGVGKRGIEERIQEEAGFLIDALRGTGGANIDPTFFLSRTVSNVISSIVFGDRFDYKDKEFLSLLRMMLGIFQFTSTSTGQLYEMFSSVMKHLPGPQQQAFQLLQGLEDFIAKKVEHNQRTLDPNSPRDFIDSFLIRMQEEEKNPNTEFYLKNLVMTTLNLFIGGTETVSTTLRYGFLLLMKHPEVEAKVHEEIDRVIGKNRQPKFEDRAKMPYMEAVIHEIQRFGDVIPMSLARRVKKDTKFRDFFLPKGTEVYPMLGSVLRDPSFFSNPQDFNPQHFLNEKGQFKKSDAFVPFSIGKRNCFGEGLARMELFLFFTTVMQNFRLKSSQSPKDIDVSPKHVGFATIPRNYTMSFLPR

Rattus norvegicus [13] = assay: Neuroprotective activity in MCAO-induced brain damage Sprague-Dawley rat model assessed as reduction in brain infarction size administered intravenously immediately after arterial occlusion measured after 24 hrs by TTC staining based analysis; assay type: functional; settings: route iv
Plasma [14] = assay: Anti-platelet aggregation in platelet-rich plasma of male male Sprague-Dawley rat assessed as inhibition of ADP-induced platelet aggregation preincubated for 15 mins followed by ADP addition measured up to 10 mins by Born's turbidometric method; assay type: functional, cell-free
Plasma [15] = assay: Anti-platelet aggregation in platelet-rich plasma of male Japanese white rabbit assessed as inhibition of ADP-induced platelet aggregation preincubated for 15 mins followed by ADP addition measured up to 10 mins by Born's turbidometric method; assay type: functional, cell-free; settings: Oryctolagus cuniculus
Rattus norvegicus [16] = assay: Neuroprotective activity in MCAO-induced brain damage Sprague-Dawley rat model assessed as reduction in neurological damage administered intravenously immediately after arterial occlusion measured after 24 hrs by Longa's method; assay type: functional, organism-based; settings: dose 2.5-10 mg/kg, route iv
Rattus norvegicus [17] = assay: Neuroprotective activity in MCAO-induced brain damage Sprague-Dawley rat model assessed as reduction in brain infarction size at 5 mg/kg, iv administered immediately after arterial occlusion measured after 24 hrs by TTC staining based analysis relative to control; assay type: functional; set-up: scale not given: the % may be the effect or the level left
Rattus norvegicus [18] = assay: Neuroprotective activity in MCAO-induced brain damage Sprague-Dawley rat model assessed as tightly arranged hippocampal neurons at 2.5 to 10 mg/kg, iv administered immediately after arterial occlusion measured after 24 hrs by H and E staining based analysis; assay type: functional, organism-based; settings: dose 2.5-10 mg/kg
CYP2C19 = CYP2C19 (Homo sapiens, UniProt P33261); assay: Inhibition of CYP2C19 in human liver microsomes using S-mephenytoin as substrate at 10 uM preincubated for 5 min followed by NADPH addition measured after 120 mins by LC-MS/MS analysis relative to control; assay type: ADME, Microsome; settings: probe S-mephenytoin, time 125 min
[19] = Metabolic stability in rat liver microsomes assessed as parent compound remaining at 1 uM measured after 3 hrs in presence of NADPH by LC-MS/MS analysis; assay type: ADME, Microsome; settings: read-out: Stability
Rattus norvegicus [20] = assay: Anti-platelet aggregation in Sprague-Dawley rat assessed as inhibition of ADP-induced platelet aggregation at 10 mg/kg, po measured for 15 mins in presence of 5 uM ADP by cell counter analysis relative to control; assay type: functional; settings: 0.25 h
[21] = Half life male Sprague-Dawley rat at 10 mg/kg, iv measured up to 24 hrs by LC-MS/MS analysis; assay type: ADME, organism-based; settings: in vivo
Rattus norvegicus [22] = assay: Anti-platelet aggregation in Sprague-Dawley rat assessed as reduction in ADP-induced bleeding loss at 10 mg/kg, po measured for 15 mins in presence of 10 uM ADP; assay type: functional, organism-based

Chain of CYP2C19 (P33261 whole entry): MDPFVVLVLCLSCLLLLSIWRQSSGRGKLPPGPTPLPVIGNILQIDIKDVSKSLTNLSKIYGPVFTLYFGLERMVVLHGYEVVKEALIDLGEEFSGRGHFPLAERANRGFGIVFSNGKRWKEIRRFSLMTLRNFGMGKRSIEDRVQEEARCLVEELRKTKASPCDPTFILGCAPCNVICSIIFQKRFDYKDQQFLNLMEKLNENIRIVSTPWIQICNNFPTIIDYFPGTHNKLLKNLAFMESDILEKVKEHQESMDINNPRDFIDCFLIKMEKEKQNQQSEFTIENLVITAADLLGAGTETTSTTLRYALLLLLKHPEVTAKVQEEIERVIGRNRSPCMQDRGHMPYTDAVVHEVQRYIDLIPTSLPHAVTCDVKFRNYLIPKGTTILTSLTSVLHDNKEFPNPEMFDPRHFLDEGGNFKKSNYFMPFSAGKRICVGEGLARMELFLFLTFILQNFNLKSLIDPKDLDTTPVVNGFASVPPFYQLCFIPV
Chain of P2Y purinoceptor 1 (Rattus norvegicus) (P49651 whole entry): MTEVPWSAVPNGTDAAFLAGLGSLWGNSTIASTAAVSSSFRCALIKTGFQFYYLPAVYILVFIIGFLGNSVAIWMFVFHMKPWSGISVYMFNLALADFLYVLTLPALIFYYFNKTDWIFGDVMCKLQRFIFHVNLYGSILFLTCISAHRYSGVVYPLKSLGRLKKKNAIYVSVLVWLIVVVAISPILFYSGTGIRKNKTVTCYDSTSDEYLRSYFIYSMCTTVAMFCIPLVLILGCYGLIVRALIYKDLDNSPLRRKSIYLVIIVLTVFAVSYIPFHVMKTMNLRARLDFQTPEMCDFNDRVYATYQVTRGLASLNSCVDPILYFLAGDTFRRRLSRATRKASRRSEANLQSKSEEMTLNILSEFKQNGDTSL
Chain of CYP2E1 (P05181 whole entry): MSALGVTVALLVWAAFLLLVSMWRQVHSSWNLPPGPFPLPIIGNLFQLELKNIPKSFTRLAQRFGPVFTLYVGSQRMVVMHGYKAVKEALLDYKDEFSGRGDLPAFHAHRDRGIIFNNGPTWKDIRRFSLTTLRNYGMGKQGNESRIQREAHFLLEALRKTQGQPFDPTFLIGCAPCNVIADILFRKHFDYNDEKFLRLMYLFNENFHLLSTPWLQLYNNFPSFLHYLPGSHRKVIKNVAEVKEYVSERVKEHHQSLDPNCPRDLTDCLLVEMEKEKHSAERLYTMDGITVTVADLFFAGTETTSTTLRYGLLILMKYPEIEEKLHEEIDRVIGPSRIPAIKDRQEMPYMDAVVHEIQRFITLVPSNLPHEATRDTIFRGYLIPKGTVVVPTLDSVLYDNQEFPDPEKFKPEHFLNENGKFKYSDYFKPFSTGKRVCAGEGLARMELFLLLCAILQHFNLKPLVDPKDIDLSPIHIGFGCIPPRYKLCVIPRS

| Structure (SMILES) | AUC [1] [ng·h/mL] | Activity [2] | Tmax [3] [min] | inhibition in vivo at 10 mg/kg (Rattus norvegicus [4]) [%] | Vd [5] [L/kg] | Activity (Rattus norvegicus [6]) [%] | Activity (Rattus norvegicus [7]) [%] | bioavailability [8] [%] | Activity (Rattus norvegicus [9]) | clearance [10] [mL/min/kg] | inhibition at 2 h, 10 µM (CYP2E1) [%] | fraction unbound at 12 h, 10 µM [11] | fraction unbound at 12 h, 10 µM [12] | inhibition (Oryctolagus cuniculus) [%] | inhibition at 2 h, 10 µM (CYP2A6) [%] | ED50 (Rattus norvegicus [13]) [mg/kg] | IC50 (Plasma [14]) [µM] | IC50 (Plasma [15]) [µM] | Activity (Rattus norvegicus [16]) | Activity (Rattus norvegicus [17]) [%] | other results |
| --- | --- | --- | --- | --- | --- | --- | --- | --- | --- | --- | --- | --- | --- | --- | --- | --- | --- | --- | --- | --- | --- |
| N#Cc1cccc(Oc2nc(-c3cccc(C#N)c3)ncc2C(=O)O)c1 | 75200 | Dose-dependent-effect | 4.98 | 66 | 0.404 | 74.2 | 21.3 | 4.1 | Dose-dependent-effect; Activity Comparable To Hnw001, Bptu, Edaravone At 10 Mg/Kg | 7 | 36.4 | 0.046 | 0.046 | 35.9 | -17.7 | 4.6 | 2.81 | 2.64 | Dose-dependent-effect; Outperformed Edaravone And Hnw001 At 10 Mg/Kg | 50.6 | Activity (Rattus norvegicus [18]): Active; inhibition at 2 h, 10 µM (CYP2C19): 9.7%; remaining at 3 h, 1 µM [19]: 71.5%; inhibition in vivo at 10 mg/kg (Rattus norvegicus [20]): 47.6%; half-life [21]: 38.5 min; Activity (Rattus norvegicus [22]): Moderate_effect; Moderate Bleeding Loss Was Observed; Potency Was More Than Bptu And Ticagrelor |
| N#Cc1cccc(-c2nc(C(F)F)c(C(=O)O)n2OCc2csc(N)n2)c1 | 14000 | Dose-dependent-effect | 4.98 | 54.5 | 0.338 | 51.5 | 23.3 | 0.31 | Dose-dependent-effect; Activity Comparable To Hnw001, Bptu, Edaravone At 10 Mg/Kg | 14.6 | 50.2 | 0.092 | 0.074 | 24.5 | -13.5 | 8.39 | 2.52 | 1.86 | Dose-dependent-effect; Outperformed Edaravone And Hnw001 At 10 Mg/Kg | 45.9 | Activity (Rattus norvegicus [18]): Active; inhibition at 2 h, 10 µM (CYP2C19): 27.4%; remaining at 3 h, 1 µM [19]: 99.4%; inhibition in vivo at 10 mg/kg (Rattus norvegicus [20]): 43.2%; half-life [21]: 14.9 min; Activity (Rattus norvegicus [22]): Active; No Bleeding Loss Was Observed |
